# Results: the METLIN SMRT retention time set (Domingo-Almenara et al. 2019)
# Assay: gradient 5% acetonitrile 3 min, to 50% in 2 min, to 85% in 15 min, held 3 min, 100 µL/min
# Settings: column: Zorbax Extend-C18 2.1 x 50 mm; eluents: water / acetonitrile, 0.1% formic acid
# Summary of the method: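 The mobile phases were water and acetonitrile, each with 0.1% formic acid, pumped at 100 μL/min through a Zorbax Extend-C18 column (2.1 × 50 mm, 1.8 μm). Pure standards were injected as mixtures of ~100 molecules and detected by a quadrupole time-of-flight mass spectrometer in positive and negative ionization mode. Retention time came from computationally picked adduct peaks, each inspected by hand.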
row,SMILES,RP-LC retention time
1,COc1ccc2c(c1)C1(CCN(C(=O)COc3ccccc3)C1)C(=O)N2C (stereo not given),791 s
2,Nc1cc(C2CCN(C(=O)Nc3ccccc3Cl)CC2)no1,698 s
3,Cc1nnc2ccc(S(=O)(=O)Nc3ccc(F)cc3)cn12,670 s
4,CC1CCN(S(=O)(=O)c2cccc(-c3nc(-c4ccccc4)no3)c2)CC1,1360 s
5,CCC(=O)N1CCC2(CC1)NC(=O)c1ccccc1O2,649 s
6,Cc1cnc(Nc2ccc(N3CCN(C)CC3)cc2)nc1Nc1cccc(S(=O)(=O)NC(C)(C)C)c1,608 s
7,CCOC(=O)c1cnc2nc(C)ccc2c1Nc1ccc(F)c(Cl)c1,764 s
8,O=C(CCn1nnc2ccccc2c1=O)NCCn1ncccc1=O,584 s
9,Cc1ccc(-c2noc(CN3N=NC4C(=O)N(c5ccc6c(c5)CCC6)C(=O)C43)n2)cc1 (stereo not given),1110 s
10,COc1ccc(OC)c(-c2nnc(NC(=O)CSc3ccc(Cl)cc3)s2)c1,947 s
11,O=C(O)CCC1CCN(C(=O)c2ccccc2Cl)CC1,677 s
12,CCc1ccccc1N1C(=O)c2c(C(=O)OC)ncn2CC1(C)C(=O)NC1CCCC1 (stereo not given),733 s
13,COc1ccccc1N1CCN(Cc2nc(-c3ccc(N4CCC(C)CC4)nc3)no2)CC1,882 s
14,CCCn1cc(S(=O)(=O)NCc2ccc(F)cc2Cl)c2cccnc21,948 s
15,Cc1cccn2c(=O)cc(CN(C)Cc3ccc(Cl)cc3)nc12,629 s
16,Cc1ccc(CN2CCN(C3CCN(S(=O)(=O)c4ccc(F)c(F)c4)CC3)C(=O)C2=O)cc1,880 s
17,COc1cc(C(=O)Nc2nc3c(C)cc(Cl)cc3s2)cc(OC)c1OC,1120 s
18,O=C(OCc1cc(-c2cc3ccccc3o2)on1)c1ccccc1S(=O)(=O)C(F)F,1090 s
19,N#Cc1cccc(NC(=O)CN2C(=O)NC(c3ccc(Cl)cc3)C3=C2COC3=O)c1 (stereo not given),763 s
20,COc1ccc(NC(=O)Cn2c(C)cc(-c3nnc(C4CCC4)o3)c2C)cc1F,697 s
21,COc1cccc(N2CCN(C(=O)C3CCCN(c4nc5ncccc5n5cccc45)C3)CC2)c1 (stereo not given),696 s
22,O=C(NCCc1c[nH]c2ccc(Cl)cc12)c1cccc(Cn2c(=O)c3cccn3c3cccnc32)c1,981 s

row,SMILES,RP-LC retention time
1,CCCNc1nc(N2CCOCC2)nc(N2CC3CC(C2)c2cccc(=O)n2C3)n1 (stereo not given),562 s
2,CCn1c(C(=O)NC(C)CCc2ccco2)cc2sc(Cl)cc21 (stereo not given),738 s
3,CCOc1nc(OCC)c2cnn(C)c2n1,901 s
4,CC(C)n1cnc(S(=O)(=O)N2CCC(C(=O)NCc3ccccc3Cl)CC2)c1,744 s
5,COc1cccc(C(O)CN2CCN(c3cccc(C)c3C)CC2)c1 (stereo not given),614 s
6,CCOC(=O)c1c(N)ssc1=S,786 s
7,CC1(C(=O)NC2CCCCC2)CN(S(C)(=O)=O)CC(=O)N1c1ccc(Cl)cc1 (stereo not given),860 s
8,COc1ccc(-n2ncc3c(NC4CC4)ncnc32)cc1,619 s
9,COc1ccc(CC(=O)NCc2ccc3c(c2)ncn3C(C)C)cc1,600 s
10,O=C(N1CCC2(CC1)CC(CCOc1ccncc1)CCO2)C1(c2ccccc2)CC1 (stereo not given),664 s
11,Cc1cccc(S(=O)(=O)N2CCCC(C)(C(=O)NCc3cccc(F)c3)C2)c1 (stereo not given),972 s
12,O=C1C2N=NN(Cc3nc(-c4ccc(Cl)cc4)no3)C2C(=O)N1c1ccc(F)cc1 (stereo not given),1030 s
13,O=C(CCc1c(-c2ccc(Cl)cc2)nc2ccccn12)Nc1cccc(F)c1,795 s
14,COc1cc(C2C(C(=O)N3CCCC3)CCC(=O)N2c2ccc3c(c2)OCO3)cc(OC)c1OC (stereo not given),665 s
15,Cc1sc(-c2cc(C(F)(F)F)on2)cc1S(=O)(=O)NCC(C)c1ccccc1 (stereo not given),1230 s
16,O=C(Nc1ccc2c(c1)CNCCO2)C1CC1,527 s
17,COc1ccccc1N1CCN([C@H]2CS(=O)(=O)C[C@@H]2S(=O)(=O)c2ccc(F)c(C)c2)CC1,864 s
18,CCc1ccc(Nc2nc(C(=O)NC3CCCCC3)nc3ccccc23)cc1,995 s
19,O=C(Nc1cccc(Br)c1)N1CCc2nc(-c3ccc(Cl)cc3)ncc2C1,1190 s
20,COc1ccc(C(=O)N2CCN3CCS(=O)(=O)N(C4CC4)C(=O)C3C2)c(OC)c1 (stereo not given),711 s
21,Cc1ccc(-c2ccc(=O)n(Cc3nc(-c4ccc(OC(C)C)cc4)no3)n2)cc1,597 s
22,CC1CCN(c2ccc(C(=O)NCC3CCCO3)cc2S(=O)(=O)N2CCC(C)CC2)CC1 (stereo not given),1170 s

# Next, values leading:
row,RP-LC retention time,SMILES
1,839 s,COc1ccc(Br)cc1CNC(=O)C1CCN(C(=O)c2cc3ccsc3[nH]2)CC1
2,624 s,COCCNC(=O)C1Cn2cccc2C(=O)N1CC(C)C (stereo not given)
3,701 s,CCCS(=O)(=O)N1CCC(Cc2ccc(COc3ccncc3)cc2)CC1
4,778 s,Cc1[nH]c(C)c(S(=O)(=O)N2CCC(C(=O)NC3CCC(C)CC3)CC2)c1C(=O)N1CCCCC1 (stereo not given)
5,824 s,COc1ccccc1S(=O)(=O)NCCc1ccsc1
6,887 s,Cc1nn(-c2ccc(-c3ccccc3)nn2)c(C)c1S(=O)(=O)N1CCOCC1
7,834 s,CCS(=O)(=O)N1CC(=O)N(c2ccc(C)cc2)C(C)(C(=O)NCc2ccc(F)cc2)C1 (stereo not given)
8,562 s,Cn1ncc2c(N3CCCC3)nc(C(=O)NCc3cccnc3)nc21
9,663 s,O=C(N[C@H]1C[C@@H]2C[C@H]1CN2C(=O)c1ccoc1)c1ccccc1
10,753 s,Cc1nc2cc(NS(=O)(=O)c3cccc4cccnc34)ccc2s1
11,860 s,O=C(Nc1ccccc1)C(=O)c1cn(CC(=O)N2CCOCC2)c2ccccc12
12,719 s,O=C(Cn1nc2n(c1=O)CCCCC2)NCc1ccccc1Cl
13,762 s,O=C(NCCn1c(=O)n(Cc2ccc(F)cc2)c2cccnc21)c1ccsc1
14,723 s,COCc1c(C(=O)O)nnn1-c1ccc(F)c(C)c1
15,1190 s,COc1cc(C(C)=O)ccc1OC(=O)c1cc2c(C)nn(-c3ccccc3)c2s1
16,865 s,O=C(NC1CC1)C1CCN(c2nc3ccc(-c4ccccc4)nc3s2)CC1
17,1110 s,CCOc1ccc(NC(=O)c2cn(-c3cc(N4CCCCC4C)ncn3)cn2)cc1 (stereo not given)
18,761 s,CCCN(C)C(=O)c1c(C)oc2ccn(Cc3ccc(F)cc3)c(=O)c12
19,783 s,COc1ccc2nc(C(=O)NCc3ccc(F)cc3)cn2n1
20,598 s,CCN1CCN(C(=O)C2CCN(C3=NS(=O)(=O)C(c4ccc(C)c(C)c4)=C3C)CC2)CC1
21,755 s,CCCC(CCC)C(=O)N1CCC(Cc2nnc(C3CCOCC3)o2)C1 (stereo not given)
22,890 s,CCc1nc(OCC(=O)NCCCOC)c2c(-c3ccc(F)cc3)noc2n1
23,685 s,O=C(CN1CCN(C(=O)Nc2ccc(Cl)cc2)CC1=O)NCc1ccco1

row,RP-LC retention time,SMILES
1,773 s,O=C(Nc1ccc2c(c1)C(=O)Nc1ccccc1O2)c1ccc2nsnc2c1
2,999 s,COc1cc(OC)c(NC(=O)Cn2cc3c(n2)CCC(C)C3)cc1Cl (stereo not given)
3,1110 s,CCOC(=O)N1CCN(C(=O)Cc2c(C)nn(-c3nc(-c4ccc(Cl)cc4)cs3)c2C)CC1
4,961 s,CCOc1cc(C)c(C)cc1S(=O)(=O)Nc1ccc(Cl)cn1
5,903 s,CCCCNC(=O)c1nccnc1NC(=O)c1ccccc1
6,642 s,CSc1nc(NCCN(C)C)c(C#N)c(-c2ccccc2)n1
7,712 s,CC(C)n1c(N2CCCN(C(=O)c3ccccn3)CC2)cc(=O)n(C(C)C)c1=O
8,1160 s,Cc1ccc(S(=O)(=O)c2cnc(N3CCN(c4ccccn4)CC3)nc2N)cc1
9,733 s,CS(=O)(=O)NCc1ccc2c(c1)CCN2C(=O)c1ccccc1
10,811 s,CC1(C)COCN1S(=O)(=O)c1ccc(C(=O)Nc2nnc(-c3ccc(F)cc3)o2)cc1
11,598 s,Cn1c(C(=O)N2CCN(c3ccccn3)CC2)cc2sccc21
12,862 s,CN(NC(=O)CC(=O)NN(C)C(=S)c1ccccc1)C(=S)c1ccccc1
13,585 s,O=C(CSc1nc2ncccc2[nH]1)NC1CCCC1
14,964 s,O=C(Nc1cccc(Cl)c1F)c1cnc(-c2ccccc2)nc1-c1ccncc1
15,589 s,CCN(CC)C(=O)c1cnc2nc(C)ccc2c1Nc1ccc(C(C)=O)cc1
16,1020 s,COc1ccc(-c2noc(-c3nnn4c3COC(c3ccc(F)cc3)C4)n2)cc1OC (stereo not given)
17,760 s,CCc1cccc(NS(=O)(=O)c2cc(-c3[nH]ncc3C(=O)N3CCCC3)oc2C)c1
18,695 s,CCCn1c(CCNC(=O)c2ccc(C)c(F)c2)nc2cccnc21
19,737 s,CSc1nnc(NC(=O)c2ccccc2Br)s1
20,721 s,Cc1ccc(-c2nc3cc(C)ccn3c2Nc2ccc3c(c2)OCCO3)cc1
21,690 s,CC(=O)N1CCc2cc(N3CC(C(=O)Nc4ccccc4F)CC3=O)ccc21 (stereo not given)
22,608 s,CCCNC(=O)CCc1c(-c2ccc(F)cc2)nc2ccccn12
23,627 s,Cc1ccc(-n2nc(C)c3nc(CCC(=O)N4CCN(c5ccccn5)CC4)c(=O)n(C)c32)cc1
